Laboratory results: US10548861B2 (Academia Sinica, priority 2015, dated 2020)
Read-outs that look alike come from different tables or passages of the source.

Key:
[1] = test system: primary AML (AML-2) vs normal human tissues; format: cell-based
[2] = test system: H526 variant SCLC cell line vs normal human tissues; format: cell-based
[3] = test system: primary B-ALL vs normal human tissues; format: cell-based
[4] = test system: normal human, murine or primate cell and tissue types; assay: MTT / alamar blue cytotoxicity on panel of normal tissues; format: cell-based; conditions: read-out: IC50 range
[5] = test system: MV4;11 AML cell line vs normal human tissues; format: cell-based
HBL2 = assay: Cytotoxicity: Mantle Cell Lymphoma; conditions: Homo sapiens, HBL2
REC-1 = assay: Cytotoxicity: Mantle Cell Lymphoma; conditions: Homo sapiens, Rec1
H678 = assay: 72 hr cytotoxicity: SCLC classic; format: cell-based; conditions: Homo sapiens
H69 = assay: 72 hr cytotoxicity: SCLC classic; format: cell-based; conditions: Homo sapiens, NCI-H69
H889 = assay: 72 hr cytotoxicity: SCLC classic; format: cell-based; conditions: Homo sapiens, NCI-H889
H209 = assay: 72 hr cytotoxicity: SCLC classic; format: cell-based; conditions: Homo sapiens, NCI-H209
H146 = assay: 72 hr cytotoxicity: SCLC classic; format: cell-based; conditions: Homo sapiens, NCI-H146
H187 = assay: 72 hr cytotoxicity: SCLC classic; format: cell-based; conditions: Homo sapiens, NCI-H187
H841 = assay: 72 hr cytotoxicity: SCLC variant; format: cell-based; conditions: Homo sapiens, NCI-H841
H417 = assay: 72 hr cytotoxicity: SCLC variant; format: cell-based; conditions: Homo sapiens, NCI-H417
H211 = assay: 72 hr cytotoxicity: SCLC variant; format: cell-based; conditions: Homo sapiens, NCI-H211; read-out: IC50
BMMSC = assay: 72 hr cytotoxicity: BM Mesenchyme; format: cell-based; conditions: Homo sapiens
H249 = assay: 72 hr cytotoxicity: SCLC classic; format: cell-based; conditions: Homo sapiens
H82 = assay: 72 hr cytotoxicity: SCLC variant; format: cell-based; conditions: Homo sapiens, NCI-H82
BCI-NSI hTERT = assay: 72 hr cytotoxicity: Bronchial epithelium; format: cell-based; conditions: Homo sapiens
H128 = assay: 72 hr cytotoxicity: SCLC classic; format: cell-based; conditions: Homo sapiens, NCI-H128; read-out: IC50
[6] = test system: normal cord blood CD34+ cells; assay: Cytotoxicity on normal cord blood CD34+ cells; format: cell-based; conditions: Homo sapiens
H524 = assay: 72 hr cytotoxicity: SCLC variant; format: cell-based; conditions: Homo sapiens, NCI-H524
H526 = assay: 72 hr cytotoxicity: SCLC variant; format: cell-based; conditions: Homo sapiens, NCI-H526
H60 = assay: 72 hr cytotoxicity: SCLC classic; format: cell-based; conditions: Homo sapiens
H562 = assay: 72 hr cytotoxicity: SCLC classic; format: cell-based; conditions: Homo sapiens
FTE-hTERT = assay: 72 hr cytotoxicity: Fallopian epithelium; format: cell-based; conditions: Homo sapiens
H719 = assay: 72 hr cytotoxicity: SCLC classic; format: cell-based; conditions: Homo sapiens
[7] = test system: MA-10-W51 CB MLL-AF9 + Flt3ITD; assay: Cytotoxicity: AML HSC-derived; format: cell-based, human; conditions: growth factor dependent MA-10-W51, FIG. 9
Excerpt: • a) Growth factor-dependent & cell density growth dependent cell lines. Human cord blood CD34+ cells transduced with MLL-AF9 gene: MA-10, MA-18. Human bone marrow CD34+ cells transduced with MLL-AF9 gene: MA-23. Human cord blood CD34+ cells transduced with MLL-AF9 and N-ras genes: MA-9.3, MA-9.6. • b) Growth factor independent leukemic cell lines. Human MA-10 cells transduced with Flt3 ITD (W51) were adapted to in vitro proliferation without growth factors (Moore Laboratory).

N.N.[Cl][Pt][Cl] [Cisplatin]
Therapeutic window ([1]; Bci- (NSI) relative to AML-2): 0.50
Therapeutic window ([1]; CD34+ relative to AML-2): 0.10
Therapeutic window ([1]; FTEC relative to AML-2): 1.67
Therapeutic window ([1]; HUVEC relative to AML-2): 0.83
Therapeutic window ([1]; huMSC relative to AML-2): 0.33
therapeutic window (TW) ([2]; Bci- (NSI), normalized to 1.00 for H526): 83.33
therapeutic window (TW) ([2]; CD34+, normalized to 1.00 for H526): 33.33
therapeutic window (TW) ([2]; FTEC, normalized to 1.00 for H526): 1041.7
therapeutic window (TW) ([2]; H526 (reference)): 1.00
therapeutic window (TW) ([2]; HUVEC, normalized to 1.00 for H526): 58.33
therapeutic window (TW) ([2]; huMSC, normalized to 1.00 for H526): 75.00
Therapeutic window ([3]; Bci- (NSI) relative to B-ALL): 0.50
Therapeutic window ([3]; CD34+ relative to B-ALL): 0.10
Therapeutic window ([3]; FTEC relative to B-ALL): 20.00
Therapeutic window ([3]; HUVEC relative to B-ALL): 0.83
Therapeutic window ([3]; huMSC relative to B-ALL): 0.33
IC50 [4]: 3600 to 4100 nM
Therapeutic window ([5]; CD34+ relative to MV4;11): 0.75
Therapeutic window ([5]; HUVEC relative to MV4;11): 6.25
Therapeutic window ([5]; NSI (Bci-NSI) relative to MV4;11): 3.75
Therapeutic window ([5]; huMSC relative to MV4;11): 2.50

CC(=O)O[C@H]1C(=O)[C@@]2(C)[C@H]([C@H](OC(=O)c3ccccc3)[C@]3(O)C[C@H](OC(=O)[C@H](O)[C@@H](NC(=O)c4ccccc4)c4ccccc4)C(C)=C1C3(C)C)[C@]1(OC(C)=O)CO[C@@H]1C[C@@H]2O [Paclitaxel]
IC50 (HBL2): 16 nM
IC50 (REC-1): 21 nM

CC[C@]1(O)C[C@H]2CN(CCc3c([nH]c4ccccc34)[C@@](C(=O)OC)(c3cc4c(cc3OC)N(C=O)[C@H]3[C@@](O)(C(=O)OC)[C@H](OC(C)=O)[C@]5(CC)C=CCN6CC[C@]43[C@@H]65)C2)C1 [Vincristine]
IC50 (H678; H678, read-out: IC50): 2 nM
IC50 (H69; read-out: IC50): 3 nM
IC50 (H889; read-out: IC50): 1 nM
IC50 (H209; read-out: IC50): 1 nM
IC50 (H146; read-out: IC50): 2900 nM
IC50 (H187; read-out: IC50): 1 nM
IC50 (H841; read-out: IC50): 2 nM
IC50 (H417; read-out: IC50): 2 nM
IC50 (H211): 2 nM
IC50 (BMMSC; HuMSC bone marrow mesenchymal stem cells, 72 hr, read-out: IC50): 6300 nM
IC50 (H249; H249, read-out: IC50): 1 nM
IC50 (H82; read-out: IC50): 7 nM
IC50 (BCI-NSI hTERT; Bci-NSI hTERT immortalized lung bronchus epithelium, 72 hr, read-out: IC50): 200000 nM
IC50 (H128): 5 nM
IC50 ([6]; CD34 (cord blood hematopoietic progenitors), 72 hr, read-out: IC50): 2340 nM
IC50 (H524; read-out: IC50): 1 nM
IC50 (H526; read-out: IC50): 136 nM
IC50 (H60; H60, read-out: IC50): 2 nM
IC50 (H562; H562, read-out: IC50): 1 nM
Therapeutic window [5]: 1.00
IC50 (FTE-hTERT; FTEC Fallopian tube epithelium, 72 hr, read-out: IC50): 250000 nM
IC50 (H719; H719, read-out: IC50): 2 nM

CCc1c(CO)c(CO)c2n1Cc1c(c3ccccc3n1C)C2 [BO-1978]
cytotoxicity (in words) [7]: highly cytotoxic, with BO-1978 more so than BO-1055

COc1cc([C@@H]2c3cc4c(cc3[C@@H](O[C@@H]3O[C@@H]5CO[C@@H](C)O[C@H]5[C@H](O)[C@H]3O)[C@H]3COC(=O)[C@H]23)OCO4)cc(OC)c1O [Etoposide]
IC50 (H678): 310 nM
IC50 (H69): 400 nM
IC50 (H889): 1400 nM
IC50 (H209): 500 nM
IC50 (H146): 2900 nM
IC50 (H187): 600 nM
IC50 (H841): 600 nM
IC50 (H417): 3700 nM
IC50 (BMMSC; 72 h): 70200 nM
IC50 (H249): 4100 nM
IC50 (H82): 9700 nM
IC50 (BCI-NSI hTERT; 72 h): 500 nM
IC50 ([6]; 72 h): 90 nM
IC50 (H524): 1400 nM
IC50 (H526): 800 nM
IC50 (H60): ≥ 20000 nM
IC50 (H562): 5500 nM
IC50 (FTE-hTERT; 72 h): 200000 nM
IC50 (H719): ≥ 10000 nM

Cc1[nH]c2ccccc2c1CCNCc1ccc(/C=C/C(=O)NO)cc1 [Panobinostat]
IC50 (HBL2): 13 nM
IC50 (REC-1): 60 nM
